Experiment: xn = mol fraction of the nth substance listed
Settings: 101 kPa, Liquid; for viscosity: Falling or rolling sphere viscometry; for mass density: Vibrating tube method

CCCC(=O)OCC [ethyl butanoate] + CCCCCCO
Settings	mass density [kg/m3]	viscosity [mPa·s]
288.15 K, x1 = 0.0997	828.32	4.176
288.15 K, x1 = 0.1998	834.25	2.965
288.15 K, x1 = 0.3002	840.39	2.214
288.15 K, x1 = 0.4	846.47	1.735
288.15 K, x1 = 0.5	852.62	1.399
288.15 K, x1 = 0.5998	858.84	1.17
288.15 K, x1 = 0.6999	865.11	0.9966
288.15 K, x1 = 0.7999	871.43	0.8726
288.15 K, x1 = 0.8998	877.77	0.7818
288.15 K, x1 = 1	884.16	0.7224
293.15 K, x1 = 0.0997	824.57	3.6
293.15 K, x1 = 0.1998	830.32	2.6
293.15 K, x1 = 0.3002	836.29	1.97
293.15 K, x1 = 0.4	842.19	1.563
293.15 K, x1 = 0.5	848.18	1.274
293.15 K, x1 = 0.5998	854.23	1.075
293.15 K, x1 = 0.6999	860.32	0.9233
293.15 K, x1 = 0.7999	866.48	0.8142
293.15 K, x1 = 0.8998	872.65	0.7339
293.15 K, x1 = 1	878.9	0.6808
298.15 K, x1 = 0.0997	820.8	3.124
298.15 K, x1 = 0.1998	826.39	2.295
298.15 K, x1 = 0.3002	832.17	1.762
298.15 K, x1 = 0.4	837.9	1.414
298.15 K, x1 = 0.5	843.72	1.166
298.15 K, x1 = 0.5998	849.59	0.991
298.15 K, x1 = 0.6999	855.52	0.857
298.15 K, x1 = 0.7999	861.51	0.761
298.15 K, x1 = 0.8998	867.52	0.6898
298.15 K, x1 = 1	873.62	0.643
303.15 K, x1 = 0.0997	817.02	2.731
303.15 K, x1 = 0.1998	822.43	2.038
303.15 K, x1 = 0.3002	828.03	1.585
303.15 K, x1 = 0.4	833.6	1.286
303.15 K, x1 = 0.5	839.24	1.069
303.15 K, x1 = 0.5998	844.95	0.9185
303.15 K, x1 = 0.6999	850.71	0.7979
303.15 K, x1 = 0.7999	856.53	0.7129
303.15 K, x1 = 0.8998	862.38	0.6492
303.15 K, x1 = 1	868.33	0.6072
308.15 K, x1 = 0.0997	813.22	2.403
308.15 K, x1 = 0.1998	818.46	1.819
308.15 K, x1 = 0.3002	823.88	1.433
308.15 K, x1 = 0.4	829.27	1.174
308.15 K, x1 = 0.5	834.75	0.9852
308.15 K, x1 = 0.5998	840.28	0.8501
308.15 K, x1 = 0.6999	845.88	0.7452
308.15 K, x1 = 0.7999	851.54	0.6686
308.15 K, x1 = 0.8998	857.23	0.6113
308.15 K, x1 = 1	863.02	0.5736
313.15 K, x1 = 0.0997	809.4	2.124
313.15 K, x1 = 0.1998	814.46	1.631
313.15 K, x1 = 0.3002	819.7	1.3
313.15 K, x1 = 0.4	824.92	1.076
313.15 K, x1 = 0.5	830.23	0.9099
313.15 K, x1 = 0.5998	835.6	0.7898
313.15 K, x1 = 0.6999	841.02	0.6964
313.15 K, x1 = 0.7999	846.52	0.6277
313.15 K, x1 = 0.8998	852.06	0.5762
313.15 K, x1 = 1	857.7	0.5425
318.15 K, x1 = 0.0997	805.54	1.887
318.15 K, x1 = 0.1998	810.43	1.469
318.15 K, x1 = 0.3002	815.5	1.184
318.15 K, x1 = 0.4	820.55	0.9878
318.15 K, x1 = 0.5	825.69	0.8422
318.15 K, x1 = 0.5998	830.89	0.7355
318.15 K, x1 = 0.6999	836.15	0.652
318.15 K, x1 = 0.7999	841.48	0.5903
318.15 K, x1 = 0.8998	846.86	0.544
318.15 K, x1 = 1	852.36	0.5132
323.15 K, x1 = 0.0997	801.66	1.7
323.15 K, x1 = 0.1998	806.38	1.332
323.15 K, x1 = 0.3002	811.27	1.089
323.15 K, x1 = 0.4	816.15	0.9186
323.15 K, x1 = 0.5	821.13	0.788
323.15 K, x1 = 0.5998	826.16	0.6919
323.15 K, x1 = 0.6999	831.25	0.6147
323.15 K, x1 = 0.7999	836.43	0.5594
323.15 K, x1 = 0.8998	841.64	0.5176
323.15 K, x1 = 1	847	0.487

CCCC(=O)OCC [ethyl butanoate] + CCCCO
Settings	mass density [kg/m3]	viscosity [mPa·s]
288.15 K, x1 = 0.1	822.84	2.336
288.15 K, x1 = 0.2001	831.39	1.762
288.15 K, x1 = 0.2999	839.43	1.408
288.15 K, x1 = 0.3998	846.96	1.186
288.15 K, x1 = 0.5	854.06	1.022
288.15 K, x1 = 0.5999	860.72	0.9212
288.15 K, x1 = 0.6998	867	0.8393
288.15 K, x1 = 0.7999	872.95	0.785
288.15 K, x1 = 0.9001	878.66	0.7409
288.15 K, x1 = 1	884.16	0.7224
293.15 K, x1 = 0.1	818.8	2.037
293.15 K, x1 = 0.2001	827.16	1.581
293.15 K, x1 = 0.2999	835.01	1.279
293.15 K, x1 = 0.3998	842.37	1.085
293.15 K, x1 = 0.5	849.32	0.9419
293.15 K, x1 = 0.5999	855.86	0.8544
293.15 K, x1 = 0.6998	862.01	0.7817
293.15 K, x1 = 0.7999	867.86	0.7316
293.15 K, x1 = 0.9001	873.47	0.6958
293.15 K, x1 = 1	878.9	0.6808
298.15 K, x1 = 0.1	814.75	1.841
298.15 K, x1 = 0.2001	822.9	1.427
298.15 K, x1 = 0.2999	830.57	1.166
298.15 K, x1 = 0.3998	837.77	0.9988
298.15 K, x1 = 0.5	844.57	0.8734
298.15 K, x1 = 0.5999	850.97	0.7967
298.15 K, x1 = 0.6998	857	0.7315
298.15 K, x1 = 0.7999	862.74	0.6849
298.15 K, x1 = 0.9001	868.27	0.656
298.15 K, x1 = 1	873.62	0.643
303.15 K, x1 = 0.1	810.68	1.648
303.15 K, x1 = 0.2001	818.63	1.292
303.15 K, x1 = 0.2999	826.12	1.068
303.15 K, x1 = 0.3998	833.15	0.9215
303.15 K, x1 = 0.5	839.8	0.8111
303.15 K, x1 = 0.5999	846.07	0.7434
303.15 K, x1 = 0.6998	851.98	0.6856
303.15 K, x1 = 0.7999	857.62	0.6447
303.15 K, x1 = 0.9001	863.05	0.6181
303.15 K, x1 = 1	868.33	0.6072
308.15 K, x1 = 0.1	806.58	1.479
308.15 K, x1 = 0.2001	814.33	1.174
308.15 K, x1 = 0.2999	821.63	0.9797
308.15 K, x1 = 0.3998	828.5	0.852
308.15 K, x1 = 0.5	835.01	0.7542
308.15 K, x1 = 0.5999	841.14	0.6973
308.15 K, x1 = 0.6998	846.94	0.6428
308.15 K, x1 = 0.7999	852.47	0.6063
308.15 K, x1 = 0.9001	857.82	0.583
308.15 K, x1 = 1	863.02	0.5736
313.15 K, x1 = 0.1	802.44	1.342
313.15 K, x1 = 0.2001	809.99	1.078
313.15 K, x1 = 0.2999	817.12	0.9078
313.15 K, x1 = 0.3998	823.82	0.7938
313.15 K, x1 = 0.5	830.18	0.7053
313.15 K, x1 = 0.5999	836.19	0.6517
313.15 K, x1 = 0.6998	841.87	0.6037
313.15 K, x1 = 0.7999	847.3	0.57
313.15 K, x1 = 0.9001	852.56	0.5487
313.15 K, x1 = 1	857.7	0.5425
318.15 K, x1 = 0.1	798.28	1.204
318.15 K, x1 = 0.2001	805.63	0.9786
318.15 K, x1 = 0.2999	812.57	0.8314
318.15 K, x1 = 0.3998	819.12	0.7327
318.15 K, x1 = 0.5	825.33	0.6556
318.15 K, x1 = 0.5999	831.21	0.6088
318.15 K, x1 = 0.6998	836.78	0.5678
318.15 K, x1 = 0.7999	842.11	0.5382
318.15 K, x1 = 0.9001	847.29	0.5197
318.15 K, x1 = 1	852.36	0.5132
323.15 K, x1 = 0.1	794.08	1.109
323.15 K, x1 = 0.2001	801.22	0.9039
323.15 K, x1 = 0.2999	807.99	0.7743
323.15 K, x1 = 0.3998	814.38	0.685
323.15 K, x1 = 0.5	820.45	0.6163
323.15 K, x1 = 0.5999	826.2	0.5736
323.15 K, x1 = 0.6998	831.66	0.5372
323.15 K, x1 = 0.7999	836.9	0.5114
323.15 K, x1 = 0.9001	842	0.4942
323.15 K, x1 = 1	847	0.487

— the NIST ThermoML archive (doi:10.1021/je5005752)
